Results published in patent publication US4440770A, “Diuretic, hypotensive and antiedemic quinoline oximes” (Mochida Seiyaku Kabushiki Kaisha, priority 1980, dated 1984).

How the values were obtained:
[1] = Properties of respective derivatives (solubility); format: physicochemical
rats = assay: Diuretic effect in rats; format: in vivo, Wister strain male rats; conditions: Rattus norvegicus, po, 5 h, urine volume up to 5 hours, % of control; for response vs control in vivo at 5 mg/kg: dosage 5 mg/kg; for response vs control in vivo at 10 mg/kg: dosage 10 mg/kg; for response vs control in vivo at 20 mg/kg: dosage 20 mg/kg; for response vs control in vivo at 2.5 mg/kg: dosage 2.5 mg/kg
Experimental: Wister strain male rats weighing about 200 g were starved overnight and each compound of this invention suspended in 25 ml/kg of physiological saline were administered orally to the 5 animals in each group, and the diuretic effect up to 5 hours after the administration was measured. The diuretic effect is expressed as the average urine volume (%) of the treated group divided by that of the control group.

[2] = system: Carrageenin-Induced Foot Edema; assay: Inhibition for carrageenin-induced foot edema in rats; format: in vivo, Wister strain male rats; conditions: Rattus norvegicus, po, 1 hour before carrageenin, paw volume 3 hours after, probit method, read-out: ED30 (dosage for 30% inhibition of edema)
Experimental: 10 Wister strain male rats weighing about 120 g were used in each group. Each compound of this invention was suspended in a 5% aqueous arabic gum solution and administered orally to the animals. One hour after the administration, 0.1 ml of a 1% solution of carrageenin in physiological saline as a phlogistic agent was subcutaneously injected into the right hind paw of the rats which had been shaven previously. The volume of the right hind paw was measured before the administration of the phlogistic agent and 3 hours after the administration. The intensity of edema expressed as percent increase in the foot volume was calculated from the […] (1) and the percent inhibition of edema was calculated from the equation (2). [formula]
The effective dosage of each compound for inhibiting edema was expressed as ED30 (mg/kg) by calculating the dosage for 30% inhibition from the percent inhibition of edema according to the probit method.

[3] = Acute oral toxicity in mice; conditions: mouse, in vivo, mortality 7 days after administration
Experimental: 10 ddY Strain male mice weighing about 20 g were used in each group. Each compound of this invention was suspended in a 5% aqueous gum arabic solution and administered orally. The mortality rate (%) was determined from the number of dead animals 7 days after the administration, and the dosage corresponding to 50% mortality was calculated and expressed as LD50 (mg/kg).

SMILES: CCCC(=O)N1CCC(=NO)c2cc(Cl)ccc21 [Compound III, 6-Chloro-4-oximino-1-butyryl-1,2,3,4-tetrahydroquinoline]
- Solubility in methanol, acetone and chloroform [1]: easily soluble
- Solubility in water and hexane [1]: Sparingly soluble
- response vs control in vivo at 5 mg/kg (rats): 122%
- response vs control in vivo at 10 mg/kg (rats): 172%
- response vs control in vivo at 20 mg/kg (rats): 240%
- ED30 [2]: 33 mg/kg
- LD50 at 168 h [3]: > 5000 mg/kg

SMILES: CCOC(=O)N1CCC(=NO)c2cc(Cl)ccc21 [Compound XIII, 6-Chloro-4-oximino-1-ethoxycarbonyl-1,2,3,4-tetrahydroquinoline]
- Solubility in ethanol and dichloromethane [1]: soluble
- Solubility in water and hexane [1]: Sparingly soluble
- response vs control in vivo at 10 mg/kg (rats): 204%
- response vs control in vivo at 20 mg/kg (rats): 310%
- ED30 [2]: 49 mg/kg
- LD50 at 168 h [3]: > 5000 mg/kg

SMILES: CCC(=O)N1CCC(=NO)c2cc(Cl)ccc21 [Compound II, 6-Chloro-4-oximino-1-propionyl-1,2,3,4-tetrahydroquinoline]
- Solubility in methanol, acetone and chloroform [1]: easily soluble
- Solubility in water and hexane [1]: Sparingly soluble
- response vs control in vivo at 2.5 mg/kg (rats): 253%
- response vs control in vivo at 5 mg/kg (rats): 304%
- response vs control in vivo at 10 mg/kg (rats): 410%
- ED30 [2]: 8.8 mg/kg
- LD50 at 168 h [3]: 3490 mg/kg

SMILES: COC(=O)N1CCC(=NO)c2cc(F)ccc21 [IX, 6-Fluoro-4-oximino-1-methoxycarbonyl-1,2,3,4-tetrahydroquinoline]
- Solubility in ethanol and dichloromethane [1]: soluble
- Solubility in water and hexane [1]: Sparingly soluble
- response vs control in vivo at 2.5 mg/kg (rats): 251%
- response vs control in vivo at 5 mg/kg (rats): 309%
- response vs control in vivo at 10 mg/kg (rats): 408%
- ED30 [2]: 22 mg/kg
- LD50 at 168 h [3]: > 5000 mg/kg
